Results from patent US11918582B2 (RAPT Therapeutics, Inc., priority 2021, dated 2024).
pIC50: −log10 of the molar value. Where a name gives a salt, the structure may show the parent alone.

target: T1, human HPK1 (MAP4K1) (Homo sapiens, UniProt Q92918); assay: Biochemical assay for activity against HPK1 (ADP-Glo, MBP substrate); conditions: recombinant human HPK1 kinase domain, 1 nM enzyme, ADP-Glo luminescence
T1 construct: Recombinant human HPK1 kinase domain was obtained from ThermoFisher (Cat. #PV6357) and SignalChem (Cat. #M23-11G); purchased ThermoFisher; SignalChem PV6357; M23-11G
T1 sequence (Q92918 17-274 limits assumed): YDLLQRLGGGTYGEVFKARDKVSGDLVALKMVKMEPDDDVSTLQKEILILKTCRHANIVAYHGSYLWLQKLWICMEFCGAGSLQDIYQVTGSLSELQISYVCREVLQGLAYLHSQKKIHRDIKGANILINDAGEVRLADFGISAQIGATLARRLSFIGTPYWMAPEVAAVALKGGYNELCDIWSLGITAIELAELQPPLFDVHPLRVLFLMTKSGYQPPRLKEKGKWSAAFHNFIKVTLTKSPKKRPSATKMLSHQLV
Text: These compounds are made by the synthetic methods described earlier herein. Example 227 Biochemical Assay for Testing Compounds for Activity against HPK1
The enzymatic activity of human HPK1 (MAP4K1) was monitored in a biochemical assay in the presence or absence of compounds, using a peptide substrate (myelin basic protein, MBP), with an ADP-Glo assay kit (Promega, Cat. #V9103). An increase in phosphorylation of the peptide by HPK1 was indicative of its kinase activity.
Recombinant human HPK1 kinase domain was obtained from ThermoFisher (Cat. #PV6357) and SignalChem (Cat. #M23-11G). A 1 nM HPK1 kinase enzyme solution was prepared from the HPK1 stock received from the commercial supplier using an assay buffer containing 50 mM HEPES (4-(2-hydroxyethyl)-1-piperazineethanesulfonic acid) pH 7.5 (Fisher Scientific, Cat. #H1035), 150 mM NaCl (Fisher Scientific, Cat. #50843067), 3 mM TCEP-HCl (Tris(2-carboxyethyl)phosphine hydrochloride; Fisher Scientific, Cat. #PIPG82080), 10 mM MgCl2 (Fisher Scientific, Cat. #AM9530G), 0.005% Tween-20 (Fisher Scientific, Cat. #BP337500) and 0.01% BSA (bovine serum albumin; ThermoFisher, Cat. #15260037), in ultra-pure water. The final concentration of the assay buffer was 770 nM. A 5 mM stock solution of the peptide substrate was prepared using […] MBP (Myelin Basic Protein, Active Motif, Cat. #31314), 10 mM ATP (adenosine 5′-triphosphate; Sigma-Aldrich, Cat. #GE27-2056-01) and of assay buffer.
Test compounds were dissolved in DMSO (dimethyl sulfoxide) at 10 mM and then serial dilutions were prepared using a ViaFlow assist multichannel dispenser (Integra ViaFlo). 20 nL of test compounds at various concentrations were dispensed into a 1536-well assay plate (Corning Cat. #7247) using an Echo Nanoliter dispenser (Labcyte ECHO 550). […] of a 1 nM solution of HPK1 kinase enzyme diluted in assay buffer was added to the compound-containing plate using a Mantis Microliter dispenser (Formulatrix Mantis), covered with a lid, and incubated for 15 minutes at room temperature. 50 nL of a 5 mM stock solution of the peptide substrate (MBP) were added using the Echo Nanoliter dispenser. The plate was covered with a lid, centrifugated at 500 rpm for 1 minute and incubated for 2 hours at room temperature. […] of ADP-Glo reagent A was added using the Mantis Microliter dispenser, centrifugated at 500 rpm for 30 seconds and incubated for 40 minutes at room temperature. […] of ADP-Glo reagent B was added using the Mantis Microliter dispenser, centrifugated at 500 rpm for 30 seconds and incubated for 30 minutes at room temperature. Peptide phosphorylation was measured by luminescence on an Envision plate reader (PerkinElmer).
The HPK1 biochemical IC50 activity levels of the compounds of Examples 1-225 were tested using this assay and are shown in Table 2.

Row | pIC50 | Compound
1 | > 7.00 | COc1cc2c(cc1Nc1ncc3cnn([C@H]4CCC[C@H](C(N)=O)C4)c3n1)CN(C)CC2 (stereo in doubt) [Example 40, (1S,3S)-3-(6-((6-methoxy-2-methyl-1,2,3,4-tetrahydroisoquinolin-7-yl)amino)-1H-pyrazolo[3,4-d]pyrimidin-1-yl)cyclohexane-1-carboxamide]
2 | > 7.00 | COc1cc2c(cc1Nc1ncc3cnn(C4CCC(CO)CC4)c3n1)CN(C)CC2 (stereo in doubt) [Example 64, cis-[4-[6-[(6-methoxy-2-methyl-3,4-dihydro-1H-isoquinolin-7-yl)amino]pyrazolo[3,4-d]pyrimidin-1-yl]cyclohexyl]methanol]
3 | > 7.00 | C=CCCN1CCc2ccc(Nc3ncc4cnn(CCC=C)c4n3)cc2C1 [Example 18, 2-(but-3-en-1-yl)-N-(1-(but-3-en-1-yl)-1H-pyrazolo[3,4-d]pyrimidin-6-yl)-1,2,3,4-tetrahydroisoquinolin-7-amine]
4 | > 7.00 | CN1CCc2ccc(Nc3ncc4cnn([C@H]5CCOC5)c4n3)cc2C1 [Example 19, (S)-2-methyl-N-(1-(tetrahydrofuran-3-yl)-1H-pyrazolo[3,4-d]pyrimidin-6-yl)-1,2,3,4-tetrahydroisoquinolin-7-amine]
5 | > 7.00 | CN1CCc2ccc(Nc3ncc4cnn([C@@H]5CCOC5)c4n3)cc2C1 [Example 20, (R)-2-methyl-N-(1-(tetrahydrofuran-3-yl)-1H-pyrazolo[3,4-d]pyrimidin-6-yl)-1,2,3,4-tetrahydroisoquinolin-7-amine]
6 | > 7.00 | CCC1CCCCC1n1ncc2cnc(Nc3cc4c(cc3OC)CCN(C)C4)nc21 (stereo not shown) [Example 25, N-(1-(2-ethylcyclohexyl)-1H-pyrazolo[3,4-d]pyrimidin-6-yl)-6-methoxy-2-methyl-1,2,3,4-tetrahydroisoquinolin-7-amine]
7 | > 7.00 | COc1cc2c(cc1Nc1ncc3cnn([C@H]4CC[C@@H](C(=O)O)CC4)c3n1)CN(C)CC2 [Example 26, (1s,4s)-4-(6-((6-methoxy-2-methyl-1,2,3,4-tetrahydroisoquinolin-7-yl)amino)-1H-pyrazolo[3,4-d]pyrimidin-1-yl)cyclohexane-1-carboxylic acid]
8 | > 7.00 | COc1cc2c(cc1Nc1ncc3cnn([C@H]4CC[C@@H](C(N)=O)CC4)c3n1)CN(C)CC2 [Example 27, (1s,4s)-4-(6-((6-methoxy-2-methyl-1,2,3,4-tetrahydroisoquinolin-7-yl)amino)-1H-pyrazolo[3,4-d]pyrimidin-1-yl)cyclohexane-1-carboxamide]

The next lines start with the molecule.

Row | Compound | pIC50
9 | CN1CCc2ccc(Nc3ncc4cnn(C5COC5)c4n3)cc2C1 [Example 1, 2-methyl-N-(1-(oxetan-3-yl)-1H-pyrazolo[3,4-d]pyrimidin-6-yl)-1,2,3,4-tetrahydroisoquinolin-7-amine] | > 7.00
10 | Cc1nn(C2COC2)c2nc(Nc3ccc4c(c3)CN(C)CC4)ncc12 [Example 2, 2-methyl-N-[3-methyl-1-(oxetan-3-yl)pyrazolo[3,4-d]pyrimidin-6-yl]-3,4-dihydro-1H-isoquinolin-7-amine] | > 7.00
11 | COc1cc2c(cc1Nc1ncc3c(C)nn(C4COC4)c3n1)CN(C)CC2 [Example 3, 6-methoxy-2-methyl-N-[3-methyl-1-(oxetan-3-yl)pyrazolo[3,4-d]pyrimidin-6-yl]-3,4-dihydro-1H-isoquinolin-7-amine] | > 7.00
12 | CN1CCc2ccc(Nc3ncc4cnn(CCN5CCCS5(=O)=O)c4n3)cc2C1 [Example 4, N-[1-[2-(1,1-dioxo-1,2-thiazolidin-2-yl)ethyl]pyrazolo[3,4-d]pyrimidin-6-yl]-2-methyl-3,4-dihydro-1H-isoquinolin-7-amine trifluoroacetate] | > 7.00
13 | CN1CCc2ccc(Nc3ncc4cnn(C)c4n3)cc2C1 [Example 5, 2-methyl-N-(1-methylpyrazolo[3,4-d]pyrimidin-6-yl)-3,4-dihydro-1H-isoquinolin-7-amine] | > 7.00
14 | CC(C)n1nc(C(F)(F)F)c2cnc(Nc3ccc4c(c3)CN(C)CC4)nc21 [Example 6, N-[1-isopropyl-3-(trifluoromethyl)pyrazolo[3,4-d]pyrimidin-6-yl]-2-methyl-3,4-dihydro-1H-isoquinolin-7-amine] | > 7.00
15 | COc1cc2c(cc1Nc1ncc3c(C(F)(F)F)nn(C(C)C)c3n1)CN(C)CC2 [Example 7, N-(1-isopropyl-3-(trifluoromethyl)-1H-pyrazolo[3,4-d]pyrimidin-6-yl)-6-methoxy-2-methyl-1,2,3,4-tetrahydroisoquinolin-7-amine] | > 7.00
16 | CCOC(=O)CCCn1ncc2cnc(Nc3ccc4c(c3)CN(C)CC4)nc21 [Example 8, Ethyl 4-(6-((2-methyl-1,2,3,4-tetrahydroisoquinolin-7-yl)amino)-1H-pyrazolo[3,4-d]pyrimidin-1-yl)butanoate] | > 7.00
17 | CCOC(=O)Cn1ncc2cnc(Nc3ccc4c(c3)CN(C)CC4)nc21 [Example 9, Ethyl 2-[6-[(2-methyl-3,4-dihydro-1H-isoquinolin-7-yl)amino]pyrazolo[3,4-d]pyrimidin-1-yl]acetate] | > 7.00
18 | CC(CO)n1ncc2cnc(Nc3ccc4c(c3)CN(C)CC4)nc21 (stereo not shown) [Example 10, 2-[6-[(2-methyl-3,4-dihydro-1H-isoquinolin-7-yl)amino]pyrazolo[3,4-d]pyrimidin-1-yl]propan-1-ol trifluoroacetate] | > 7.00
19 | COC(C)(C)CCn1ncc2cnc(Nc3ccc4c(c3)CN(C)CC4)nc21 [Example 11, N-(1-(3-methoxy-3-methylbutyl)-1H-pyrazolo[3,4-d]pyrimidin-6-yl)-2-methyl-1,2,3,4-tetrahydroisoquinolin-7-amine] | > 7.00
20 | CN1CCc2ccc(Nc3ncc4cnn(C5CCOCC5)c4n3)cc2C1 [Example 12, 2-methyl-N-(1-(tetrahydro-2H-pyran-4-yl)-1H-pyrazolo[3,4-d]pyrimidin-6-yl)-1,2,3,4-tetrahydroisoquinolin-7-amine] | > 7.00
21 | CN1CCc2ccc(Nc3ncc4cnn(C5CC6(COC6)C5)c4n3)cc2C1 [Example 13, N-(1-(2-oxaspiro[3.3]heptan-6-yl)-1H-pyrazolo[3,4-d]pyrimidin-6-yl)-2-methyl-1,2,3,4-tetrahydroisoquinolin-7-amine] | > 7.00
22 | CN1CCc2ccc(Nc3ncc4cnn(CC5COC5)c4n3)cc2C1 [Example 14, 2-methyl-N-(1-(oxetan-3-ylmethyl)-1H-pyrazolo[3,4-d]pyrimidin-6-yl)-1,2,3,4-tetrahydroisoquinolin-7-amine] | > 7.00
23 | CN1CCc2ccc(Nc3ncc4cnn(C5CCCOC5)c4n3)cc2C1 (stereo not shown) [Example 15, 2-methyl-N-(1-(tetrahydro-2H-pyran-3-yl)-1H-pyrazolo[3,4-d]pyrimidin-6-yl)-1,2,3,4-tetrahydroisoquinolin-7-amine] | > 7.00
24 | CN1CCc2ccc(Nc3ncc4cnn(C5CCNCC5)c4n3)cc2C1 [Example 16, 2-methyl-N-(1-(piperidin-4-yl)-1H-pyrazolo[3,4-d]pyrimidin-6-yl)-1,2,3,4-tetrahydroisoquinolin-7-amine hydrochloride] | > 7.00
25 | CN1CCc2ccc(Nc3ncc4cnn([C@H]5CCCNC5)c4n3)cc2C1 [Example 17, (S)-2-methyl-N-(1-(piperidin-3-yl)-1H-pyrazolo[3,4-d]pyrimidin-6-yl)-1,2,3,4-tetrahydroisoquinolin-7-amine hydrochloride] | > 7.00
